Where two headings read alike, the source gives them in different places.
System: Stat3-ER expressing A375 cells
Format: cell-based
Description: In order to understand Stat3's ability to affect cell proliferation and cell death, we have examined the profile of genes expressed upon Stat3 activation in A375 cells using oligonucleotide microarrays.
Briefly, microarray analysis was performed using HG U95A GeneChips™ (Affymetrix, Santa Clara, USA) essentially according to the manufacturer's instructions. […] RNA from three independent experiments was pooled and biotin-labeled cRNA probes were generated from each sample starting from 10 μg of total cellular RNA. The resulting biotinylated cRNAs were hybridized to the Affymetrix U95A oligonucleotide array containing more than 12,000 sequences and signals detected. Chip analysis was performed using the Affymetrix Microarray Suite v5 (target intensity 500 used for chip scaling) and GeneSpring 4.2.1 (Silicon Genetics). Changes in gene expression were assessed by looking for concordant changes between replicates using a signed Wilcoxon rank test (as recommended by Affymetrix).

## oncostatin M [OSM]
Clone1
  expression change (fold): Major vault protein: 2.9
  expression change (fold): Nicotinamide N-methyltransferase: 2.8
  expression change (fold): Niemann-Pick disease, type C1: 1.7
  expression change (fold): Oncostatin M receptor: 1.9
  expression change (fold): Osteoprotegrin: 5.2
  expression change (fold): Prostatic acid phosphatase precursor: 4.5
  expression change (fold): Ras-induced senescence 1: 1.8
  expression change (fold): Regenerating islet-derived 1 alpha (pancreatic stone protein, pancreatic thread protein): 3.0
  expression change (fold): Regulator of G protein signalling 16: 3.7
  expression change (fold): STAT induced STAT inhibitor 3: 11.6
  expression change (fold): Secreted phosphoprotein 1 (osteopontin, bone sialoprotein 1, early T-lymphocyte activation 1): 3.8
  expression change (fold): Serine (or cysteine) protease inhibitor, clade B (ovalbumin), member 3: 28.8
  expression change (fold): Small inducible cytokine A2 (monocyte chemotactic protein 1): 0.9
  expression change (fold): Solute carrier family 2 (facilitated glucose transporter), member 3: 1.9
  expression change (fold): Stanniocalcin 1: 2.8
  expression change (fold): Tyrosine phosphatase/TIGR = HG620-HT620: 0.9
  expression change (fold): v-fos FBJ murine osteosarcoma viral gene homologue: 2.9
  expression change (fold): v-jun avian sarcoma virus 17 oncogene homologue: 1.4
  expression change (fold): v-maf musculoaponeurotic fibrosarcoma oncogene homologue (avian): 2.5
Clone1, 2nd listing
  expression change (fold): Aquaporin 3: 9.2
  expression change (fold): Fibronectin 1, isoform 1 preproprotein: 0.6
  expression change (fold): Insulin-like growth factor binding protein 3: 2.4
  expression change (fold): Interleukin 8: 1.2
  expression change (fold): Kynureninase (L-kynurenine hydrolase): 1.8
  expression change (fold): Oncostatin M receptor: 1.9
  expression change (fold): Prostatic acid phosphatase precursor: 1.0
  expression change (fold): Secreted phosphoprotein 1 (osteopontin, bone sialoprotein 1, early T-lymphocyte activation 1): 3.5
  expression change (fold): v-jun avian sarcoma virus 17 oncogene homologue: 1.8
Clone1, 3rd listing
  expression change (fold): Kynureninase (L-kynurenine hydrolase): 1.9
Clone2
  expression change (fold): Absent in melanoma 2: 3.1
  expression change (fold): Alpha-1-antichymotrypsin precursor: 2.4
  expression change (fold): Aquaporin 3: 3.8
  expression change (fold): Brain-derived neurotrophic factor: 4.7
  expression change (fold): CCAAT/enhancer binding protein (C/EBP), delta: 1.6
  expression change (fold): Cathepsin L: 3.4
  expression change (fold): Cytokine receptor-like factor 1: 0.9
  expression change (fold): Death-associated protein kinase 1: 6.9
  expression change (fold): Ephrin A1 precursor: 2.9
  expression change (fold): Ets variant gene 6: 4.0
  expression change (fold): Fibronectin: 3.1
  expression change (fold): Fibronectin 1, isoform 1 preproprotein: 1.9
  expression change (fold): Glycine dehydrogenase (decarboxylating, glycine decdarboxylase, glycine cleavage system protein P): 2.5
  expression change (fold): I factor (complement): 2.2
  expression change (fold): Insulin-like growth factor binding protein 3: 2.1
  expression change (fold): Intercellular adhesion molecule 1 precursor: 2.1
  expression change (fold): Interferon induced transmembrane protein 1 (9-27): 0.6
  expression change (fold): Interleukin 8: 0.6
  expression change (fold): Jun B proto-oncogene: 2.2
  expression change (fold): KIAA0161 gene product: 1.7
  expression change (fold): KIAA0303 protein: 2.4
  expression change (fold): KIAA0500 protein: 3.8
  expression change (fold): Killer cell lectin-like receptor subfamily C, member 2: 1.0
  expression change (fold): Killer cell lectin-like receptor subfamily C, member 3 isoform NKG2-E: 0.4
  expression change (fold): Kynureninase (L-kynurenine hydrolase): 1.7
  expression change (fold): MHC class II transactivator: 2.6
  expression change (fold): MHC, class II, DQ alpha 1 precursor: 2.3
  expression change (fold): MHC, class II, DQ beta 1: 2.6
  expression change (fold): Major vault protein: 2.5
  expression change (fold): Nicotinamide N-methyltransferase: 1.9
  expression change (fold): Niemann-Pick disease, type C1: 2.4
  expression change (fold): Oncostatin M receptor: 2.1
  expression change (fold): Osteoprotegrin: 0.7
  expression change (fold): Prostatic acid phosphatase precursor: 10.2
  expression change (fold): Ras-induced senescence 1: 1.9
  expression change (fold): Regenerating islet-derived 1 alpha (pancreatic stone protein, pancreatic thread protein): 3.0
  expression change (fold): Regulator of G protein signalling 16: 2.1
  expression change (fold): STAT induced STAT inhibitor 3: 9.7
  expression change (fold): Secreted phosphoprotein 1 (osteopontin, bone sialoprotein 1, early T-lymphocyte activation 1): 11.3
  expression change (fold): Serine (or cysteine) protease inhibitor, clade B (ovalbumin), member 3: 26.7
  expression change (fold): Small inducible cytokine A2 (monocyte chemotactic protein 1): 1.5
  expression change (fold): Solute carrier family 2 (facilitated glucose transporter), member 3: 2.6
  expression change (fold): Stanniocalcin 1: 4.6
  expression change (fold): Tyrosine phosphatase/TIGR = HG620-HT620: 1.6
  expression change (fold): v-fos FBJ murine osteosarcoma viral gene homologue: 4.6
  expression change (fold): v-jun avian sarcoma virus 17 oncogene homologue: 1.0
  expression change (fold): v-maf musculoaponeurotic fibrosarcoma oncogene homologue (avian): 3.5
Clone2, 2nd listing
  expression change (fold): Aquaporin 3: 6.7
  expression change (fold): Fibronectin 1, isoform 1 preproprotein: 2.3
  expression change (fold): Insulin-like growth factor binding protein 3: 1.7
  expression change (fold): Interleukin 8: 0.7
  expression change (fold): Kynureninase (L-kynurenine hydrolase): 1.3
  expression change (fold): Oncostatin M receptor: 2.0
  expression change (fold): Prostatic acid phosphatase precursor: 1.7
  expression change (fold): Secreted phosphoprotein 1 (osteopontin, bone sialoprotein 1, early T-lymphocyte activation 1): 5.7
  expression change (fold): v-jun avian sarcoma virus 17 oncogene homologue: 1.1
Clone2, 3rd listing
  expression change (fold): Kynureninase (L-kynurenine hydrolase): 1.4
